Laboratory results: US20040034002A1, “3Alpha-hydroxy-3beta-methoxymethyl-substituted steroids and the use thereof” (Euro-Celtique S.A., priority 1999, published 2004)

Tests used:
rat = assay: Rotorod test (sedative/hypnotic activity and duration of action); assay type: in vivo; settings: for TD50: Rattus norvegicus, 1 min, read-out: RR TD50 po; for Duration of action: at lowest dose where all animals failed the rotorod test, time until all animals pass again; for Number of animals passing the rotorod test at 240 minutes: given for compounds with duration of action >240 minutes
Description: (§1) Table I below compares the in vitro potencies [ability to inhibit the binding of [^35S]-tert-butylbicyclophosphorothionate (TBPS)], rotorod TD50's (dose at which half of animals tested fail to stay on a rotating rod for 1 minute) and the length of time before all animals tested are able to pass rotorod test (duration of action) of closely structurally related pairs of 3β-methyl and 3β-methoxymethyl steroids. These methods for measuring in vitro and in vivo activity of compounds of the invention are fully described in U.S. Pat. No. 5,232,917. The TBPS assay gives the in vitro potency of compounds whereas the rotorod assay estimates the sedative/hypnotic activity of compounds. Since the duration of action of a compound is dependent on the dose and will be prolonged at higher doses, the duration of action was measured at the lowest dose where all of the animals failed the rotorod test. For compounds with duration of action >240 minutes, the number of animals passing the rotorod test at 240 minutes is given in parentheses. In each pair, the […] steroid has a biological duration action of greater than 240 minutes, while in each of the corresponding 3β-methoxymethyl steroids the duration of action is reduced to 180 minutes or less. […] Thus, specific 3β-methoxymethyl-substituted neuroactive steroids gave unique and unexpected pharmacokinetic profiles, making them especially useful as sedative/hypnotic and anesthetic agents.

[1] = target: [35S]-tert-butylbicyclophosphorothionate (TBPS) binding; assay: Inhibition of [35S]-TBPS binding (in vitro potency); set-up: species or system rat; settings: dose of steroid inhibiting 50% of specific binding of [35S]-TBPS
Description: as §1

[2] = po, po, dose at which half of animals fail to stay on a rotating rod for 1 minute

Row | Compound | TD50 (rat; [2]) | IC50 [1] | Duration of action (rat) | melting point | Number of animals passing the rotorod test at 240 minutes (rat) | RR TD50 po (rat; po, dose at which half of animals fail to stay on a rotating rod for 1 minute)
1 | COCC1(O)CCC2(C)C(CCC3C2CCC2(C)C(C(=O)Cn4ccnc4)CCC32)C1 (stereo not drawn) [3α-Hydroxy-21-(1′-imidazolyl)-3β-methoxymethyl-5β-pregnan-20-one] | 30 mg/kg |  |  |  |  | 
2 | COCC1(O)CCC2(C)C(CCC3C2CCC2(C)C(C(=O)CSc4nnc(N)s4)CCC32)C1 (stereo not drawn) [21-(5′-Amino-[1,3,4]-thiadiazol-2-ylthio)-3 α-hydroxy-3β-methoxymethyl-5α-pregnan-20-one] | 40 mg/kg | 48 nM | <90 min | 169 to 172 °C |  | 
3 | CC1(O)CCC2(C)C(CCC3C2CCC2(C)C(C(=O)COc4ccc5c(ccc[n+]5[O-])c4)CCC32)C1 (stereo not drawn) [3α-Hydroxy-3β-methyl-21-(quinolin-6-yloxy)-5α-pregnan-20-one, N-oxide, reference compound] | 15 mg/kg | 46 nM | >240 min |  | (1/8 | 
4 | CC1(O)CCC2(C)C(CCC3C2CCC2(C)C(C(=O)Cn4ccnc4)CCC32)C1 (stereo not drawn) [3α-Hydroxy-21-(1′-imidazolyl)-3β-methyl-5α-pregnan-20-one, reference compound] | 31 mg/kg | 97 nM | >240 min |  | (3/8 | 
5 | COCC1(O)CCC2(C)C(CCC3C2CCC2(C)C(C(=O)Cn4ccnc4)CCC32)C1 (stereo not drawn) [3α-Hydroxy-21-(1′-imidazolyl)-3β-methoxymethyl-5β-pregnan-20] [3α-Hydroxy-21-(1′-imidazolyl)-3β-methoxymethyl-5β-pregnan-20-one] |  | 174 nM | <180 min |  |  | 
6 | COCC1(O)CCC2(C)C(CCC3C2CCC2(C)C(C(=O)COc4ccc5c(ccc[n+]5[O-])c4)CCC32)C1 (stereo not drawn) [3α-Hydroxy-3β-methoxymethyl-21-(quinolin-6-yloxy)-5α-pregnan-20-one, N-oxide] | 29 mg/kg | 25 nM | 84 min |  |  | 
7 | CC1(O)CCC2(C)C(CCC3C2CCC2(C)C(C(=O)Cn4ncnn4)CCC32)C1 (stereo not drawn) [3α-Hydroxy-3β-methyl-21-(2′-tetrazolyl)-5α-pregnan-20-one, reference compound] | 4.5 mg/kg | 44 nM | >240 min |  | (0/8 | 
8 | COCC1(O)CCC2(C)C(CCC3C2CCC2(C)C(C(=O)Cn4ncnn4)CCC32)C1 (stereo not drawn) [3α-Hydroxy-3β-methoxymethyl-21-(2′-tetrazolyl)-5α-pregnan-20-one] | 35 mg/kg | 24 nM | 120 min |  |  | 
9 | COCC1(O)CCC2(C)C(CCC3C2CCC2(C)C(C(=O)Cn4ccnc4)CCC32)C1 (stereo not drawn) [3α-Hydroxy-21-(1′-imidazolyl)-3β-methoxymethyl-5α-pregnan-20] [3α-Hydroxy-21-(1′-imidazolyl)-3β-methoxymethyl-5α-pregnan-20-one] |  | 138 nM | 140 min |  |  | 28 mg/kg
